SMILES strings stand for the structures. Activity calls are given as the source filed them. The calls are words filed in the database; no cut-off is given here. A value given as a limit tells only on which side of the number the result lay.

Assay [1] has as its target T1, Tyrosine-protein kinase ITK/TSK (Homo sapiens, UniProt Q08881).
T1 sequence (Q08881 whole entry): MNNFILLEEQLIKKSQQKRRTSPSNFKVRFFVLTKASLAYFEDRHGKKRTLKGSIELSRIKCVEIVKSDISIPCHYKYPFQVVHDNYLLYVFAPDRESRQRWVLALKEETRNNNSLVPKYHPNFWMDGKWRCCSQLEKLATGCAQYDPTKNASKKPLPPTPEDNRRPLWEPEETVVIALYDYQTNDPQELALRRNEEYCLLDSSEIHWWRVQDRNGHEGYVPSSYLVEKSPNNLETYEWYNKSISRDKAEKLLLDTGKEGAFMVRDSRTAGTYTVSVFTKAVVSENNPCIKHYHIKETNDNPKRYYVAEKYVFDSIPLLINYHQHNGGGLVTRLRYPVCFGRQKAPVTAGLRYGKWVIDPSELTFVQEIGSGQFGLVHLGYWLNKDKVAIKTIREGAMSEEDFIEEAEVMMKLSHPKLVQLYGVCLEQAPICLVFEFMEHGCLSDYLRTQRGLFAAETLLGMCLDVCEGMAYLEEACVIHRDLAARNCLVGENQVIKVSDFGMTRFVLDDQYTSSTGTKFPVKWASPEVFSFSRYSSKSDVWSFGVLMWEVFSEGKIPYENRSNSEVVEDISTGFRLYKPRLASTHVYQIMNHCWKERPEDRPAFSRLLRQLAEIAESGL
Kind of assay: Inhibition of recombinant human N-terminal His6-tagged ITK (352 to 617 residues) expressed in baculovirus infected Sf21 insect cells using STK substrate by HTRF assay. For orientation: TR-FRET usually uses a lanthanide donor and a delayed reading to cut background.

For assay [2], the target named is Epidermal growth factor receptor (Homo sapiens, UniProt P00533). Kind of assay: Inhibition of recombinant human N-terminal GST-tagged EGFR kinase domain (696 to end residues) expressed in baculovirus infected Sf21 insect cells using STK as substrate by HTRF assay.
Sequence of Epidermal growth factor receptor (P00533 whole entry, the tested form may be a part): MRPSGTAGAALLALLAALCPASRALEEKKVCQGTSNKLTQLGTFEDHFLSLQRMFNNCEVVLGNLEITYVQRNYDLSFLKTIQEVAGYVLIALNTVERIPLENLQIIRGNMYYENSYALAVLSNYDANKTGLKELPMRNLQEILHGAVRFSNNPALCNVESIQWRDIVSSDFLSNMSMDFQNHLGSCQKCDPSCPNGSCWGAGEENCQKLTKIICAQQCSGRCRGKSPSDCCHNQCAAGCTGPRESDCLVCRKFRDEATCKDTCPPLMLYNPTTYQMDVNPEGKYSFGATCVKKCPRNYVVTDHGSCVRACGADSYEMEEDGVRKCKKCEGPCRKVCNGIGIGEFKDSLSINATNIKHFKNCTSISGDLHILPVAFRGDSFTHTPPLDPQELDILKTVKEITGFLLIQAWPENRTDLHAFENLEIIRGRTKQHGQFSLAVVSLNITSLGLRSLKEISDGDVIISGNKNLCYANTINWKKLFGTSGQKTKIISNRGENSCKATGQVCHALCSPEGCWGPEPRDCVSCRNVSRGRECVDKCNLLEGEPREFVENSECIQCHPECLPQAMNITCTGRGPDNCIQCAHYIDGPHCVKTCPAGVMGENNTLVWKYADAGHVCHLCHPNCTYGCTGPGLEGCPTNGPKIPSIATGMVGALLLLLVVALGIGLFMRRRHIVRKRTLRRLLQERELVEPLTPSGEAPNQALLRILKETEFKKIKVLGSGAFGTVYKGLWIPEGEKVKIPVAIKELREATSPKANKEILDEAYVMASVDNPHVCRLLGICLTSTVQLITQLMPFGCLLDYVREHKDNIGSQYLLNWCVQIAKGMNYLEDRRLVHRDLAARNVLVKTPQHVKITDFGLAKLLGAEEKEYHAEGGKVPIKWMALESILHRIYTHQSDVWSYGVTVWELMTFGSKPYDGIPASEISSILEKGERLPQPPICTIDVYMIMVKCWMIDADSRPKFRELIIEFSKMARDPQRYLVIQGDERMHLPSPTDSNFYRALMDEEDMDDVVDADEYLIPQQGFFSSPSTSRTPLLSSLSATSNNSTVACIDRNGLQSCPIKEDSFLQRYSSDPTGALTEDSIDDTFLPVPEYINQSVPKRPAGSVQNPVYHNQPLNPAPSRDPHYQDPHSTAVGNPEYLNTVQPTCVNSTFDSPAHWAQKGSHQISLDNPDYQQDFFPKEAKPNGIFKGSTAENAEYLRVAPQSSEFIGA
Assay [3] has as its target Tyrosine-protein kinase BTK (Homo sapiens, UniProt Q06187). Kind of assay: Inhibition of recombinant human full-length N-terminal His6-tagged BTK expressed in baculovirus infected Sf21 insect cells using STK substrate by HTRF assay.
The target in assay [4] is T2, Tyrosine-protein kinase JAK3 (Homo sapiens, UniProt P52333).
T2 sequence (P52333 whole entry): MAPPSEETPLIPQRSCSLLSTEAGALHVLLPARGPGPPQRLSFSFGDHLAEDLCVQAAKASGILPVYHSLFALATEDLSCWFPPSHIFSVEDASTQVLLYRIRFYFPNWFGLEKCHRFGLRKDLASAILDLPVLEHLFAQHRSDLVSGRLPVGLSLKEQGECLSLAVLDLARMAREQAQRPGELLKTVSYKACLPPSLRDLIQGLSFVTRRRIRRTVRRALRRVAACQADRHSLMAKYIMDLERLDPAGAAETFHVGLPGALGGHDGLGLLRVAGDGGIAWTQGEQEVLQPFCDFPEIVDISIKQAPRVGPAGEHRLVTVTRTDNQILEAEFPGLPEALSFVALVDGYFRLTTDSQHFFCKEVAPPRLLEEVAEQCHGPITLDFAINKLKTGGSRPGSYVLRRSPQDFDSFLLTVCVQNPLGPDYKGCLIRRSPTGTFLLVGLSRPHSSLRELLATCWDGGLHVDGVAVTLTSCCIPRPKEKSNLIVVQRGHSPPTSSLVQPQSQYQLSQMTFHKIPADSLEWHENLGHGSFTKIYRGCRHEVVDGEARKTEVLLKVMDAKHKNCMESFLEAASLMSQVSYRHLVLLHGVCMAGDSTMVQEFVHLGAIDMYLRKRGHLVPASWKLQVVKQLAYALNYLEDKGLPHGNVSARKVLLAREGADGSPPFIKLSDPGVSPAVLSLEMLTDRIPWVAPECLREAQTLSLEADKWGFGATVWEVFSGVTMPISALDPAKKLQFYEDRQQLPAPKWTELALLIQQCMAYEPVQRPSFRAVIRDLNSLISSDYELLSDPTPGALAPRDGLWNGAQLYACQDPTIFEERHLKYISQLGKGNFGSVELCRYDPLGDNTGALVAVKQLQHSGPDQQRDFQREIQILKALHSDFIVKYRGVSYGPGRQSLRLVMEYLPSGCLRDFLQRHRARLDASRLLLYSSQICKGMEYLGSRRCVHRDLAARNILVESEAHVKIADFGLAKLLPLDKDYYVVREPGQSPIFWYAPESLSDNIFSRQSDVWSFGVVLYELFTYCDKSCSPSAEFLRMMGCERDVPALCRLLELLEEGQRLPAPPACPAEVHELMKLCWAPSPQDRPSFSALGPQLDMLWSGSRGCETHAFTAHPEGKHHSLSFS
Kind of assay: Inhibition of recombinant human N-terminal His6-tagged JAK3 (781 to end residues) expressed in baculovirus infected Sf21 cells using STK as substrate by HTRF assay.

Assay [5] concerns the target T1, Tyrosine-protein kinase ITK/TSK. Nature of the assay: Inhibition of kinase tracer 236 binding to recombinant full length GST-tagged human ITK cytoplasmic domain expressed in baculovirus expression system incubated for 60 mins by Lanthascreen assay.
In assay [6] the test system is H9. Nature of the assay: Growth inhibition of human H9 cells incubated for 72 hrs by CellTiter-Glo luminescent cell viability assay. It counts as functional. To be noted: H9, 72 h. A general note: In ATP-based viability assays light output follows the ATP content of the culture.
The subject of assay [7] is Jurkat. Kind of assay: Growth inhibition of human Jurkat cells incubated for 72 hrs by CellTiter-Glo luminescent cell viability assay. The class given is functional.
Assay [8] deals with CCRF-CEM. Nature of the assay: Growth inhibition of human CCRF-CEM cells incubated for 72 hrs by CellTiter-Glo luminescent cell viability assay. It counts as functional.
Assay [9] deals with HEK-293T. Kind of assay: Growth inhibition of HEK293T cells incubated for 72 hrs by CellTiter-Glo luminescent cell viability assay. The settings on record: Homo sapiens. It counts as functional.
Assay [10] has as its system MOLT-4. Kind of assay: Growth inhibition of human MOLT4 cells incubated for 72 hrs by CellTiter-Glo luminescent cell viability assay. It counts as functional. The settings on record: MOLT-4, 72 h.
The target in assay [11] is T3, Tyrosine-protein kinase ITK/TSK (Homo sapiens) (UniProt Q08881).
T3 sequence (whole entry): T1 sequence (Q08881 whole entry)
Nature of the assay: Inhibition of human ITK at 1 uM using MAP as substrate in presence of [gamma33P]-ATP relative to control.

Assay [12] concerns the target Tyrosine-protein kinase Blk (Homo sapiens, UniProt P51451). Nature of the assay: Inhibition of BLK (unknown origin) using […] as substrate by HTRF assay.
Assay [13] addresses T3, Tyrosine-protein kinase ITK/TSK (Homo sapiens). Kind of assay: Inhibition of ITK in human Jurkat cells assessed as reduction in anti-CD3/CD28-stimulated PLCgamma1 phosphorylation at 0.1 to 10000 nM preincubated for 2 hrs followed by anti-CD3/CD28 beads addition and measured after 30 min by Western blot analysis. It counts as cell-based. For orientation: In western blotting, separated proteins are transferred to a membrane and probed.

Assay [14] shares this target. Nature of the assay: Inhibition of recombinant human N-terminal His6-tagged ITK (352 to 617 residues) expressed in baculovirus infected Sf21 insect cells assessed as ratio of Kinact to Ki using STK substrate by HTRF assay.
Assay [15] has the same target. Kind of assay: Inhibition of recombinant human N-terminal His6-tagged ITK (352 to 617 residues) expressed in baculovirus infected Sf21 insect cells assessed as inactivation rate constant using STK substrate by HTRF assay.
Assay [16] has the same target. Nature of the assay: Covalent binding affinity to recombinant human ITK assessed as binding to Cys442 residue at 50 uM incubated for 24 hrs prior to trypsin addition for 4 hrs and boiled for 3 min followed by chymotrypsin addition and measured after overnight incubation by LC/MS/MS analysis.

Sequence of Tyrosine-protein kinase BTK (Q06187 whole entry): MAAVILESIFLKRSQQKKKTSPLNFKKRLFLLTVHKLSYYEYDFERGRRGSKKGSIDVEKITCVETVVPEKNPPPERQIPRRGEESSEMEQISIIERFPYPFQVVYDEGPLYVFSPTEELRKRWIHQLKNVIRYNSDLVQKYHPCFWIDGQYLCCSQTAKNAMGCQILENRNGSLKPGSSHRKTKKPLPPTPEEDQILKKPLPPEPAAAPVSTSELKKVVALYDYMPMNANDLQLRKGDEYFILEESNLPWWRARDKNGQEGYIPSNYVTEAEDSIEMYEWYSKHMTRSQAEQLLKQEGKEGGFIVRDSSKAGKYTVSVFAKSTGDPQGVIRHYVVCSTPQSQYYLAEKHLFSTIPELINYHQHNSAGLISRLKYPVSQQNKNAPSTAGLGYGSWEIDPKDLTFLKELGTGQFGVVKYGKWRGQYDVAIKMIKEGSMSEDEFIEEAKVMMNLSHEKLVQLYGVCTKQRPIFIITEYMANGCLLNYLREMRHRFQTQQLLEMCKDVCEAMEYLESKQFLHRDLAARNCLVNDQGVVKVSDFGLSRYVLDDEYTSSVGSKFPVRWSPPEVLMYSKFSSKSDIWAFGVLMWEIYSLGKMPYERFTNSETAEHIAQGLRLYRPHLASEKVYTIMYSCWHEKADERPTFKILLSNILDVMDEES
Sequence of Tyrosine-protein kinase Blk (P51451 whole entry): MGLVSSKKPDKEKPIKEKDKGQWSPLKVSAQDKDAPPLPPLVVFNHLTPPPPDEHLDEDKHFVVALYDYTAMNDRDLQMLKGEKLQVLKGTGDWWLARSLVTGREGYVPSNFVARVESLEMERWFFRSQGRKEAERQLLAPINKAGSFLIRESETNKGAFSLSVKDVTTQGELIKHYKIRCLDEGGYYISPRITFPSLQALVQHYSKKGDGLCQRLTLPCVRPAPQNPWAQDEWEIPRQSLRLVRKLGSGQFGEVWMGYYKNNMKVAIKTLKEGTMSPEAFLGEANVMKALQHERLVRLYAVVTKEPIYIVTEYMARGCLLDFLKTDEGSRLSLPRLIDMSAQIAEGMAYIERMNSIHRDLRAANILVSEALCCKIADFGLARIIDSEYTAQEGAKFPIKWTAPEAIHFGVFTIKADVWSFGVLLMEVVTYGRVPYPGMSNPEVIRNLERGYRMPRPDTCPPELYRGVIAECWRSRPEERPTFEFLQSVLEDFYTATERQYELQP

On to `C=CC(=O)N1CCC(Oc2nc(Nc3ccc(N4CCOCC4)cc3)nc3[nH]cc(-c4ccnc(NC)c4)c23)CC1`, for which the IC50 in [1] is under 1.26 nM; in [2], 38 nM; in assay [3], 36 nM; in [4] it was 4.2 nM.

In the case of `C=CC(=O)N1CCC[C@H](Oc2nc(Nc3ccc(N4CCN(C(C)=O)CC4)cc3)nc3[nH]cc(-c4cncc(NC)n4)c23)C1`, the IC50 in assay [1] is 375 nM; in assay [3] it was over 10000 nM.

Regarding `C=CC(=O)N1CCC[C@@H](Oc2nc(Nc3ccc(N4CCN(CC)CC4)cc3)nc3[nH]cc(-c4cncc(NC)n4)c23)C1`, the IC50 is 1.3 nM in assay [1], 8.7 nM in [2], 26 nM in assay [3] and 1.2 nM in assay [4].

Turning to `CNc1cncc(-c2c[nH]c3nc(Nc4ccc(N5CCN(C(C)=O)CC5)cc4)nc(OC4CCCCC4)c23)n1`, the IC50 in assay [1] turned out to be 5.1 nM; in assay [2], 654 nM; in [3], 1470 nM; in assay [4], 104 nM.

In the case of `COc1ccc(-c2c[nH]c3nc(Nc4ccc(N5CCOCC5)cc4)nc(Oc4ccccc4)c23)cc1`, in assay [5], the half-inhibitory concentration (IC50) was over 10000 nM.

Take `C#CCCN1CCN(c2ccc(Nc3nc(OC4CCN(C(=O)C=C)CC4)c4c(-c5cncc(NC)n5)c[nH]c4n3)cc2)CC1`: the IC50 in assay [1] is 55 nM; in [2] it was over 3000 nM; in assay [3] it was over 3000 nM; in [4], 61 nM.

On to `CNc1cncc(-c2c[nH]c3nc(Nc4ccc(N5CCN(C(C)=O)CC5)cc4)nc(OC4CCOCC4)c23)n1`, for which the IC50 in assay [1] came out at 7.1 nM; in assay [2], 937 nM; in [3], 1610 nM; in [4], 186 nM.

Regarding `C=CC(=O)N1CCC[C@@H]1COc1nc(Nc2ccc(N3CCN(C(C)=O)CC3)cc2)nc2[nH]cc(-c3cncc(NC)n3)c12`, the IC50 worked out at 2.2 nM in assay [1], 150 nM in assay [2], 286 nM in [3] and 69 nM in assay [4].

Consider `C=CC(=O)N1CCC(Oc2nc(Nc3ccc(N4CCOCC4)cc3)nc3[nH]cc(-c4cccc(NC)n4)c23)CC1`, for which the IC50 is 74 nM in assay [1], over 3000 nM in [2], over 10000 nM in assay [3] and 1430 nM in assay [4].

For the compound `C=CC(=O)N1CCC(Oc2nc(Nc3ccc(N4CCOCC4)cc3)nc3[nH]cc(-c4cncc(NC)c4)c23)CC1`, the GI50 in assay [6] came to 190 nM; in [7], 188 nM; in assay [8], 48 nM; in assay [9] it was 270 nM; in assay [10] it was 109 nM. Further, the IC50 is 3.6 nM in [1], over 3000 nM in assay [2], 942 nM in assay [3] and 84 nM in assay [4].

As to `C=CC(=O)Nc1cccc(Oc2nc(Nc3ccc(N4CCN(C)CC4)c(F)c3)nc3[nH]ccc23)c1`, the inhibition in [11] came out at 80%.

As to `Nc1ccc(-c2c[nH]c3nc(Nc4ccc(N5CCOCC5)cc4)nc(Oc4ccccc4)c23)cc1`, the half-maximal inhibitory concentration (IC50) in [5] is over 10000 nM.

Regarding `CNc1cncc(-c2c[nH]c3nc(Nc4ccc(N5CCN(C(C)=O)CC5)cc4)nc(Oc4ccccc4)c23)n1`, the IC50 in assay [1] was 5.4 to 19 nM; in [2], 1050 nM; in assay [3], 1460 nM; in assay [4], 470 nM.

For the compound `C=CC(=O)Nc1cccc(Oc2nc(Nc3ccc(N4CCOCC4)cc3)nc3[nH]cc(-c4ccncc4)c23)c1`, the IC50 was 0.5 nM in [1]; 2.3 nM in assay [2]; 3.9 nM in [3]; 0.7 nM in assay [12]; 0.6 nM in assay [4].

For the compound `C=CC(=O)N1CCC(Oc2nc(Nc3ccc(N4CCN(C(C)=O)CC4)cc3)nc3[nH]cc(-c4cncc(NC)n4)c23)CC1`, the IC50 in assay [1] is 2.3 nM; in assay [2], 903 nM; in [3], 1480 nM; in assay [4] it was 51 nM.

Take `C=CC(=O)Nc1cccc(Oc2nc(Nc3ccc(N4CCN(C(C)=O)CC4)cc3)nc3[nH]cc(-c4cncc(NC)n4)c23)c1`: the figures for the half-inhibitory concentration (IC50) in assay [1] and in assay [3] were 5.4 nM and 8 nM, respectively.

Consider `C=CC(=O)N1CCC[C@H]1COc1nc(Nc2ccc(N3CCN(C(C)=O)CC3)cc2)nc2[nH]cc(-c3cncc(NC)n3)c12`, for which the IC50 in assay [1] worked out at 7.8 nM; in assay [2], 1970 nM; in assay [3], 434 nM; in [4], 3.7 nM.

With `C=CC(=O)N1CCC[C@@H](Oc2nc(Nc3ccc(N4CCN(C(C)=O)CC4)cc3)nc3[nH]cc(-c4cncc(NC)n4)c23)C1`, in [13], the inhibition result is “Active”. The IC50 in [1] is 3.7 nM; in assay [2] it was 499 nM; in assay [3], 270 nM; in assay [4], 24 nM. In addition, the Ki in assay [1] amounted to 33.7 nM. In assay [14], the Ratio stood at 153 ×10³ /M.s. Further, the K in [15] turned out to be 0.31 min⁻¹.

As to `C=CC(=O)N1CCC[C@@H](Oc2nc(Nc3ccc(N4CCOCC4)cc3)nc3[nH]cc(-c4cncc(NC)n4)c23)C1`, the inhibition entry in [13] was “Active”. In addition, the result in assay [16] was Active. Besides, the half-maximal inhibitory concentration (IC50) in [1] is under 1.26 nM; in assay [2], 138 nM; in assay [3] it was 35 nM; in assay [4], 11 nM. Moreover, the Ki in [1] was 5.8 nM. Also, the Ratio in [14] was 891 ×10³ /M.s. In addition, the K in assay [15] amounted to 0.31 min⁻¹.

What is called IC50 is the concentration needed to halve the response being measured. The GI50 is the concentration that inhibits growth by half. The term inhibition denotes the change of the read-out against control, counted positive when it falls. As usually defined, the Ki is the dissociation constant of the complex between target and ligand, obtained from inhibition or displacement.

Values taken from ChEMBL document CHEMBL4346710, “Discovery of 7H-pyrrolo[2,3-d]pyrimidine derivatives as selective covalent irreversible inhibitors of interleukin-2-inducible T-cell kinase (Itk)” (Eur J Med Chem, 2019).
